In ChEMBL document CHEMBL4619734, “Molecule Property Analyses of Active Compounds for Mycobacterium tuberculosis” (J Med Chem, 2020):
≈ marks a conversion by molar mass, not a printed value.

Key:
Format in all cases: functional
[1] = tested on: Mycobacterium tuberculosis; assay: Antitubercular activity against Mycobacterium tuberculosis harboring mmpL3
[2] = tested on: Mycobacterium tuberculosis; assay: Antimycobacterial activity against multi drug-resistant Mycobacterium tuberculosis H37Rv
[3] = tested on: Mycobacterium tuberculosis; assay: Antimycobacterial activity against multi drug-resistant Mycobacterium tuberculosis
[4] = tested on: Mycobacterium tuberculosis; assay: Antimycobacterial activity against multi drug-resistant Mycobacterium tuberculosis expressing WecA
[5] = tested on: Mycobacterium tuberculosis; assay: Antimycobacterial activity against Mycobacterium tuberculosis drug resistant clinical isolates

Structure (SMILES): Cc1c(CN2CCN(c3ccc(C(F)(F)F)cc3)CC2)cc(-c2ccccc2)n1NC(=O)c1ccncc1
- MIC [1]: 0.025 to 0.12 µg/mL (≈ 0.0481 to 0.231 µM)

Structure (SMILES): Cc1c(CN2CCN(C)CC2)cc(-c2ccc(Cl)cc2)n1-c1ccc(Cl)cc1
- MIC [1]: 0.7 to 6.2 µg/mL (≈ 1.69 to 15 µM)

Structure (SMILES): Cc1cc2nc(CCc3cc(Cl)cc(Cl)c3)[nH]c2cc1C
- MIC90 [2]: 5 µM (≈ 1.6 µg/mL)

Structure (SMILES): CC/N=c1\cc2n(-c3ccc(C(F)(F)F)cc3)c3ccccc3nc-2cc1Nc1ccc(C(F)(F)F)cc1
- MIC [3]: 0.25 µg/mL (≈ 0.475 µM)

Structure (SMILES): CCN(CC)C/N=c1\cc2n(-c3ccc(Cl)c(Cl)c3)c3ccccc3nc-2cc1Nc1ccc(Cl)c(Cl)c1
- MIC [3]: 0.12 µg/mL (≈ 0.205 µM)

Structure (SMILES): CCCCc1ccc(NC(=O)C2=CCN(C)C(C(O[C@@H]3O[C@H](CN)[C@@H](O)[C@H]3O)[C@H]3OC(n4ccc(=O)[nH]c4=O)[C@H](O)[C@@H]3O)C(=O)N2C)cc1 (stereo partly specified)
- MIC [4]: 6.25 µg/mL (≈ 9.07 µM)

Structure (SMILES): Cc1c(CN2CCSCC2)cc(-c2ccc(F)cc2)n1-c1ccccc1
- MIC [1]: 0.5 µg/mL (≈ 1.36 µM)

Structure (SMILES): CC(C)/N=c1\cc2n(-c3ccc(Cl)cc3)c3ccccc3nc-2cc1Nc1ccc(Cl)cc1 [CLOFAZIMINE]
- MIC [3]: 1 µg/mL (≈ 2.11 µM)

Structure (SMILES): C[C@]1(COc2ccc(N3CCC(Oc4ccc(OC(F)(F)F)cc4)CC3)cc2)Cn2cc([N+](=O)[O-])nc2O1 [DELAMANID]
- MIC [5]: 0.01 µg/mL (≈ 0.0187 µM)

Structure (SMILES): O=[N+]([O-])c1cn2c(n1)OC[C@@H](OCc1ccc(OC(F)(F)F)cc1)C2 [PRETOMANID]
- MIC90 [5]: 0.531 µg/mL (≈ 1.48 µM)

Structure (SMILES): CC(C)=CCC/C(C)=C/CNCCNC1C2CC3CC(C2)CC1C3 (stereo unspecified) [SQ109]
- MIC [1]: 0.16 to 0.64 µg/mL (≈ 0.484 to 1.94 µM)
